From patent US20060121180A1, “Metallic structures incorporating bioactive materials and methods for creating the same” (Medlogics Device Corporation, priority 2001, published 2006)

What was measured:
[1] = Drug elution from coated stents into physiologic saline solution (spectrophotometric assay); type: physicochemical; settings: Bx Velocity (316L) and Smart (nitinol) stents with Ni-P coating, physiologic saline changed daily (FIGS. 6 and 7)
From the text: Coated stents were formed using the same basic electroless deposition procedure in Example 1. However, in this example, instead of foil substrates, Johnson and Johnson Bx velocity stents (stainless steel) and Johnson and Johnson Smart stents (nitinol) were used as substrates. Bioactive composite structures in the form of layers were formed on the stents.
The amounts on the y-axis of the graphs represent the amount of bioactive material remaining on the stent after elution into a physiologic saline solution.
A similar anodization process as was used in the stent examples as was again applied to the foil substrates. After coating, the coated stent was placed in a physiologic saline solution and the solution changed daily. On the indicated days, the stent coatings were anodized. The amount of bioactive material released in each case was determined using a spectrophotometric assay.

[2] = Optical absorbance of elution bath from coated 316L stainless steel sample in 0.9% saline; type: physicochemical; settings: 1 cm2 316L stainless steel sample
From the text: Table 3 depicts several experiments following the general procedures outlined in example 1, each with one time point and for a new bioactive material. M is the difference in absorbance between an elution bath from the sample containing the respective bioactive material and the absorbance from a sample with pure coating (i.e. control). In this instance, a 1 cm2 medical grade 316L stainless steel sample was coated using the above mentioned process.
M refers to the absorbance difference between coated with bioactive material and coated without bioactive material.

Compound	time over which appreciable amounts were released [1] [days]	ΔA (absorbance difference, coated with vs without bioactive material) ([2]; Time = 0, immediately after deposition)	ΔA (absorbance difference, coated with vs without bioactive material) ([2]; after seven days in 0.9% saline solution, characteristic absorbance wavelength in parentheses)
O=c1[nH]cc(F)c(=O)[nH]1 [Fluorouracil, 5-fluorouracil]	40		
albumin	40		
heparin		0	2.4 (230 nm)
